Results: patent US20080312086A1, “PEST CONTROL SHEET” (MAKHTESHIM CHEMICAL WORKS LTD., priority 2000, published 2008)

What was measured:
watermelon crop = test: Watermelon crop development under the pest control sheet; format: in vivo
Excerpt: (§1) The present invention further provides a method for pest control. Said method may be applied in agriculture, horticulture or in garden maintenance. In agriculture and horticulture said method is applied as follows: subsequent to physically preparing the field and soil for planting, e.g. plowing, fumigating the soil and laying down of an irrigation system, the sheet is spread over the field so as to cover the soil [FIG. II, (1)], and is then secured to the ground. The sheet [FIG. II, (2), (3)] is then punctured at the spot where a seedling is intended to be planted so that a seedling [FIG. II, (4)] may be inserted through the hole [FIG. II, (5)] and planted in the soil. […] When the sheet contains a pesticide in the top layer, then pest control is maintained above the soil, in the area of the plant. This may also help in protecting the fruit/vegetable itself. Said method can be applied in gardens in a similar manner as described above. The sheet and method of the present invention have been applied to a watermelon crop. The experiments were conducted with three different concentrations of herbicide in the bottom layer.

weeds = test: Weed control by the pest control sheet in a watermelon crop; format: in vivo
Excerpt: as §1

[1] = 0.5 weight % of pesticide in bottom layer of sheet
[2] = 1 weight % of pesticide in bottom layer of sheet
[3] = 2 weight % of pesticide in bottom layer of sheet

CCOc1cc(Oc2ccc(C(F)(F)F)cc2Cl)ccc1[N+](=O)[O-] [Oxyfluorfen, 2-chloro-a,a,a-trifluoro-p-tolyl 3-ethoxy-4-nitrophenyl ether]
100%: Development (% of crop development in comparison to healthy crop on a scale of 0-100, 100 indicating a healthy crop) (watermelon crop; [1]) | Development (% of crop development in comparison to healthy crop on a scale of 0-100, 100 indicating a healthy crop) (watermelon crop; [2]) | Development (% of crop development in comparison to healthy crop on a scale of 0-100, 100 indicating a healthy crop) (watermelon crop; [3]) | Weed control (% of weed control on a scale of 0-100, 100 indicating total prevention of weed emergence) (weeds; [1]) | Weed control (% of weed control on a scale of 0-100, 100 indicating total prevention of weed emergence) (weeds; [2]) | Weed control (% of weed control on a scale of 0-100, 100 indicating total prevention of weed emergence) (weeds; [3])
